# Measurements: patent US9375450B2, “Vaginal tissue rejuvenation compositions and methods” (priority 2011, dated 2016)
# Key:
# [1] = test system: ovariectomized (OVX) Sprague-Dawley rats; experiment: Macroscopic measurements (genital hiatus, vaginal length) after 2 weeks vaginal suppositories; assay type: in vivo, rat; settings: vaginal suppositories 2 weeks (20 μM zinc sulfate, 10 nM GW501516, 0.01% estradiol), mean±SD; for genital hiatus (distance between the external urethral meatus and the mid anus): placebo 12.6±1.1; for vaginal length: placebo 14.1±1.1
# Method: (§1) Ten to 12-weeks old female ovariectomized (OVX) Sprague-Dawley rats were utilized for the experiments. The animals were acclimatized to the environmental conditions before starting the experiment. The animals were housed individually and were allowed free access to water and rodent food. […] The suppositories were prepared according to the fusion method, using a polypeg suppository base ([…]., USA). […] Using a microwave, the suppository base was melted in a small beaker for 3 min and then transferred and kept into a water bath at a temperature of 55° C. The proper amount of above reagent was added to the liquefied base and meticulously crushed with a smooth rounded-end glass rod for about 20 min to make the solution to be even and clear. A pipette tip was used to suck some amount of solution and push it into a plastic tube with a diameter of 3.5 mm, and the tube was immediately left on the flat surface of an ice bucket. The suppository turned to white in color when it was solid. The moulded suppository was then pushed out of the tube using a round rod. […] After 30 min of cooling at room temperature, the suppositories were stored at 4° C. in a closed chamber until use. They were left to reach room temperature before use. The day after the last treatment the rats were overnight fasted and then sacrificed. Macroscopic measurement (genital hiatus, vaginal length) were taken and the vagina was dissected out carefully to avoid any injury to the vagina. The mid section of the vagina was utilized for histology (H and E stain, Masson's trichrome stain) and immunofluorescence and the rest of the vagina was used for RNA extraction and RT-PCR.
# [2] = test system: rat vaginal Collagen I, Collagen III, Collagen V protein; experiment: Immunofluorescence of vaginal collagen protein expression after 2 weeks vaginal suppositories; assay type: in vivo; settings: OVX rats, vaginal suppositories 2 weeks, mean±SD; for ratio of vaginal Collagen I to Collagen III protein expression: placebo 1.16±0.2; for ratio of vaginal Collagen I to Collagen V protein expression: placebo 1.28±0.3
# Method: as §1, with “RT-PCR. Samples were incubated with three different antibodies, collagen I, III and anti-actin or collagen I and V and anti-actin. Frozen tissues samples were cut into sections of 6 μm and fixed for 10 min with acetone, followed by five washes of phosphate-buffered saline (PBS). […] After that, sections were incubated with the secondary antibody for one hour in the dark, at room temperature, followed by five washes of PBS. […] Alexa Fluor 405 Goat Anti-Mouse IgG (1:400) (Invitrogen); Cy3-AffiniPure Goat Anti-Mouse IgM (1:400) (Jackson ImmunoResearch Laboratories, West Grove, Pa.); Alexa Fluor 647 (1;200) phalloidin (Invitrogen). […] Four images were obtained per section. Images were capture with an Orca II-ERG 12 bitt CCD camera in a Zeiss Apotome microscope with a 20× objective. The data was analyzed using Matamorph version 7.7.4 software. Results are represented as mean pixel intensity ratios per square area.” for “RT-PCR.”
# [3] = test system: rat vaginal Col1a1, Col3a1, Col5a1 mRNA; experiment: qRT-PCR of vaginal collagen gene expression after 2 weeks vaginal suppositories; assay type: in vivo; settings: OVX rats, vaginal suppositories 2 weeks, mean±SD; for ratio of vaginal Col1a1 to Col3a1 mRNA expression: placebo 0.78±0.2; for ratio of vaginal Col1a1 to Col5a1 mRNA expression: placebo 4.3±1.9
# Excerpt: Ten to 12-weeks old female ovariectomized (OVX) Sprague-Dawley rats were utilized for the experiments. The animals were acclimatized to the environmental conditions before starting the experiment. The animals were housed individually and were allowed free access to water and rodent food. Two weeks after the ovariectomy rats (n=36) were divided into five groups: control (receiving placebo suppositories, n=8), Zinc (receiving zinc sulfate containing suppositories, n=8), GW (receiving GW501516 containing suppositories, n=8), Zinc with GW (receiving Zinc with GW 501516 containing suppositories, n=8) and Estradiol (receiving estradiol containing suppositories, n=4).
# The suppositories were prepared according to the fusion method, using a polypeg suppository base (MEDISCA, N.Y., USA). […] Using a microwave, the suppository base was melted in a small beaker for 3 min and then transferred and kept into a water bath at a temperature of 55° C. The proper amount of above reagent was added to the liquefied base and meticulously crushed with a smooth rounded-end glass rod for about 20 min to make the solution to be even and clear. A pipette tip was used to suck some amount of solution and push it into a plastic tube with a diameter of 3.5 mm, and the tube was immediately left on the flat surface of an ice bucket. The suppository turned to white in color when it was solid. The moulded suppository was then pushed out of the tube using a round rod. The moulded suppository was cut using a razor blade to a length of 1.2 cm each, which was calibrated to equal a volume of 50±5 μl per each suppository. After 30 min of cooling at room temperature, the suppositories were stored at 4° C. in a closed chamber until use. They were left to reach room temperature before use.
# Total RNA was isolated from 20 mg of vaginal rat tissue in each experimental rat group using the RNeasy Mini kit (Qiagen) according to the manufacturer's specifications. For each total RNA preparation, DNase digestion was performed to remove contaminating genomic DNA. Total RNA samples from each tissue were quantified and evaluated for RNA integrity by the Agilent Bioanalyzer 2100 (Applied Biosystems, Foster City Calif., USA). Following RNA extraction, cDNA was reverse transcribed from ˜500 ng of each total RNA preparation using the qScript cDNA synthesis kit (Quanta Biosciences, Gaithersburg Md., USA). Finally, cDNA samples were used to perform gene expression analysis by qRT-PCR using SYBR Green technology on the RealPlex EP Mastercycler (Eppendorf, Germany) of five genes with known roles in vaginal tissue reconstruction: Collagen IaI (col 1a1), Collagen IIIaI (col 3a1), Collagen VaI (col 5a1), Elastin (eln), Tensin I (tns-1). Glyceraldehyde-3 Phosphate Dehydrogenase (gapdh) was used as a positive control to normalize the expression of each gene. Each qRT-PCR reaction was run in triplicate using Perfecta SYBR Green Supermix (Quanta Biosciences, Gaithersburg Md., USA) in 25 μL reaction volumes using a final concentration of 300 nM forward and reverse primers. For each of the genes analyzed in this study, primers were designed using Primer-BLAST software (NCBI) and synthesized by IDT Technologies (San Diego, Calif.).
# [4] = test system: ovariectomized (OVX) Sprague-Dawley rats; experiment: Vaginal histology and histomorphometry after 2 weeks vaginal suppositories; assay type: in vivo, rat; settings: vaginal suppositories 2 weeks; for vaginal epithelial thickness / vaginal muscularis thickness / vaginal lamina propria thickness / vaginal thickness (all three layers of the vagina) / lamina propria collagen fiber compactness: mean±SD; for vaginal epithelial thickness: placebo 57±18; for vaginal muscularis thickness: placebo 121±44; for vaginal lamina propria thickness: placebo 179±71; for vaginal thickness (all three layers of the vagina): placebo 358±86; for vaginal epithelial cornification rate: placebo 0%; for lamina propria collagen fiber compactness: scale 0-5 (0=loose, 5=tight), placebo 4.5±0.6
# Method: as §1, with “RT-PCR. […] For each animal, a 4 μm-thick paraffin section was cut and stained with haematoxylineosin and with Masson's trichrome stain for morphological examination. […] The cornification was determined by the presence of a keratin layer on the vaginal epithelium. Measurements of the different vaginal layers were performed on the fifth segment of the vagina, which is approximately halfway between the middle region and the portio vaginalis uteri. […] Images were captured with a color digital camera and quantified using ImageJ software was used. […] The thickness of the lamina propria was obtained by deducting the thickness of the epithelium and muscularis from total vaginal thickness.” for “RT-PCR.”
Structure (SMILES),genital hiatus (distance between the external urethral meatus and the mid anus) [1],vaginal length [1],ratio of vaginal Collagen I to Collagen III protein expression [2],ratio of vaginal Collagen I to Collagen V protein expression [2],ratio of vaginal Col1a1 to Col3a1 mRNA expression [3],ratio of vaginal Col1a1 to Col5a1 mRNA expression [3],vaginal epithelial thickness [4],vaginal muscularis thickness [4],vaginal lamina propria thickness [4],vaginal thickness (all three layers of the vagina) [4],vaginal epithelial cornification rate [4],lamina propria collagen fiber compactness [4]
"Cc1cc(SCc2sc(-c3ccc(C(F)(F)F)cc3)nc2C)ccc1OCC(=O)O [GW501516, 2-[2-methyl-4-([4-methyl-2-[4-(trifluoromethyl)phenyl)-1,3-thiazol-5-yl]methylsulfanyl]phenoxy]acetic acid]",14.7±1.1 mm,15.5±1.0 mm,1.20±0.1 relative units,1.20±0.4 relative units,1.0±0.2 relative units,8.8±3.0 relative units,54±23 μm,130±50 μm,192±68 μm,377±98 μm,25%,4.0±0.5 relative units
"O.O.O.O.O.O.O.O=S(=O)([O-])[O-].[Zn+2] [zinc sulfate, zinc sulfate heptahydrate]",14.5±2.5 mm,15.6±4.0 mm,1.37±0.1 relative units,1.50±0.4 relative units,0.95±0.1 relative units,9.7±2.5 relative units,79±21 μm,155±58 μm,242±78 μm,477±106 μm,87%,3.5±0.5 relative units
